Series [1] addresses T1, Serine/threonine-protein kinase 17A (Homo sapiens, UniProt Q9UEE5).
T1 sequence (Q9UEE5 whole entry): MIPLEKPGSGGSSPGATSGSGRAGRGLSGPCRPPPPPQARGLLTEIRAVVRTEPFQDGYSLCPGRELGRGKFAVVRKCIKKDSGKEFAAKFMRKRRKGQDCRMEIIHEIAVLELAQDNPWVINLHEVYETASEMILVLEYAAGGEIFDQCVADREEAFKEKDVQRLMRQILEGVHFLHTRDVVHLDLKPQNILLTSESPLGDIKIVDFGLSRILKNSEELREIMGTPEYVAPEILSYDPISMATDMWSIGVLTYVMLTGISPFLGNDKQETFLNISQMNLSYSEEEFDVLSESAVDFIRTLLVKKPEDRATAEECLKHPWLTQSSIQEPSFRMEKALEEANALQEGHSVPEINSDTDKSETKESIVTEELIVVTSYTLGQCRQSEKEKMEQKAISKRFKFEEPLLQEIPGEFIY
Description: Inhibition of human N-terminal His-tagged/ TEV cleavage fused DRAK1 (39 to 369 residues) transfected in HEK293T cells using NanoBRET NanoGlo as substrate incubated for 2 hrs by NanoBRET assay. The series is classed as cell-based. Background: Bioluminescence resonance energy transfer reports proximity on the nanometre scale.

Series [2] deals with T2, Serine/threonine-protein kinase 17A (Homo sapiens) (UniProt Q9UEE5).
T2 sequence (whole entry): T1 sequence (Q9UEE5 whole entry)
Description: Inhibition of human N-terminal His-tagged/ TEV cleavage fused DRAK1 (39 to 369 residues) expressed in Escherichia coli assessed as change in entropy by isothermal titration calorimetry.

Series [3] concerns the target T2, Serine/threonine-protein kinase 17A (Homo sapiens). Description: Inhibition of human N-terminal His-tagged/ TEV cleavage fused DRAK1 (39 to 369 residues) expressed in Escherichia coli assessed as gibbs free energy change by isothermal titration calorimetry. A general note: In ITC the heat of successive injections is recorded.
The test system of series [4] is HEK-293T. Description: Cytotoxicity against human HEK293T cells assessed as increase in total apoptotic cells at 10 uM incubated for 36 hrs by Annexin V staining based method. The series is classed as toxicity, cell-based.
The target of series [5] is T3, Serine/threonine-protein kinase 17B (Homo sapiens, UniProt O94768).
T3 sequence (O94768 whole entry): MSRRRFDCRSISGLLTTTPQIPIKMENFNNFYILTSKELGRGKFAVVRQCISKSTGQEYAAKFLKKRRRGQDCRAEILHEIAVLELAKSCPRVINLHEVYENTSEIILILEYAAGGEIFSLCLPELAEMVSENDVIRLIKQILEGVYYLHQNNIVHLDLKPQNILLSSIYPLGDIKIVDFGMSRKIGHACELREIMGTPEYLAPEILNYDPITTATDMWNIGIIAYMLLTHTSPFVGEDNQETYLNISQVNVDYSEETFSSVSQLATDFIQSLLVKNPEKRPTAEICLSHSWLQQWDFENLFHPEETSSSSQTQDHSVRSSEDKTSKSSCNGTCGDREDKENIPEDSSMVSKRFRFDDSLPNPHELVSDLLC
In words: Inhibition of DRAK2 (unknown origin) transfected in HEK293T cells using NanoBRET NanoGlo as substrate incubated for 2 hrs by NanoBRET assay. The series is classed as cell-based.

The nature of series [6]: Cytotoxicity against human MRC9 cells at 1 uM incubated for 36 hrs. The series is classed as toxicity, cell-based. Particulars: mrc9, 36 h.
The nature of series [7]: Induction of morphological changes in human MRC9 cells assessed as mitochondrial damage at 1 to 10 uM incubated for 18 hrs by confocal fluorescence microscopic analysis. To be noted: mrc9, 18 h, dose 1-10 µM. Type of series: toxicity, cell-based.
Series [8] relates to T98G. In words: Antiproliferative activity against human T98G cells assessed as reduction in cell viability measured after 1 to 7 days by resazurin dye based fluorimetric analysis. Type of series: functional. (In general: The colour change of resazurin is a common sign of viable cells or microbes.)
Series [9] has as its target Casein kinase II subunit alpha (Homo sapiens, UniProt P68400). In words: Inhibition of human CK2alpha1 using RRRDDDSDDD peptide as substrate in presence of [gamma-33P]ATP by radiometric based scintillation proximity assay.
For series [10], the system named is LN-229. Description: Antiproliferative activity against human LN-229 cells assessed as reduction in cell viability after 1 to 7 days by resazurin dye based fluorimetric analysis. The series is classed as functional.
Series [11] has as its system U2OS. Description: Cytotoxicity against human U2OS cells assessed as increase in total apoptotic cells at 10 uM incubated for 36 hrs by Annexin V staining based method. The series is classed as functional, cell-based.
Series [12] has as its target BMP-2-inducible protein kinase (Homo sapiens, UniProt Q9NSY1). In words: Inhibition of BIKE (unknown origin) transfected in HEK293T cells using NanoBRET NanoGlo as substrate incubated for 2 hrs by NanoBRET assay. The series is classed as cell-based.
For series [13], the target named is AP2-associated protein kinase 1 (Homo sapiens) (UniProt Q2M2I8). In words: Binding affinity to AAK1 (unknown origin) assessed as change in melting temperature at 10 uM by SYPRO orange dye based DSF assay.
Series [14] can be described thus: Inhibition of human CK2alpha2 using RRRDDDSDDD peptide as substrate in presence of [gamma-33P]ATP by radiometric based scintillation proximity assay.
Series [15] is described as follows: Inhibition of CK2alpha2 (unknown origin) transfected in HEK293T cells using NanoBRET NanoGlo as substrate incubated for 2 hrs by NanoBRET assay. Particulars: Homo sapiens, HEK-293T. The series is classed as cell-based.
The target in series [16] is T1, Serine/threonine-protein kinase 17A. In words: Binding affinity to human N-terminal His-tagged/ TEV cleavage fused DRAK1 (39 to 369 residues) expressed in Escherichia coli by isothermal titration calorimetry.
The target of series [17] is T2, Serine/threonine-protein kinase 17A (Homo sapiens). Description: Binding affinity to human N-terminal His-tagged/ TEV cleavage fused DRAK1 (39 to 369 residues) expressed in Escherichia coli assessed as change in melting temperature at 10 uM by SYPRO orange dye based DSF assay.
Series [18] relates to T98G. Description: Induction of morphological changes in human T98G cells assessed as change in cell shape at 12.5 uM incubated for 5 days by microscopy analysis. The series is classed as functional, cell-based. Particulars: time 5.0 day.
Series [19] can be described thus: Cytotoxicity against human HEK293T cells assessed as increase in total apoptotic cells incubated for 36 hrs by Annexin V staining based method. Type of series: toxicity, cell-based, HEK-293T.

Activity calls are given as the source filed them. The rule behind the calls is not given here.

Data on 1 compound can be found in ChEMBL document CHEMBL5154923 (J Med Chem, 2022).

BMP-2-inducible protein kinase, sequence (Q9NSY1 whole entry): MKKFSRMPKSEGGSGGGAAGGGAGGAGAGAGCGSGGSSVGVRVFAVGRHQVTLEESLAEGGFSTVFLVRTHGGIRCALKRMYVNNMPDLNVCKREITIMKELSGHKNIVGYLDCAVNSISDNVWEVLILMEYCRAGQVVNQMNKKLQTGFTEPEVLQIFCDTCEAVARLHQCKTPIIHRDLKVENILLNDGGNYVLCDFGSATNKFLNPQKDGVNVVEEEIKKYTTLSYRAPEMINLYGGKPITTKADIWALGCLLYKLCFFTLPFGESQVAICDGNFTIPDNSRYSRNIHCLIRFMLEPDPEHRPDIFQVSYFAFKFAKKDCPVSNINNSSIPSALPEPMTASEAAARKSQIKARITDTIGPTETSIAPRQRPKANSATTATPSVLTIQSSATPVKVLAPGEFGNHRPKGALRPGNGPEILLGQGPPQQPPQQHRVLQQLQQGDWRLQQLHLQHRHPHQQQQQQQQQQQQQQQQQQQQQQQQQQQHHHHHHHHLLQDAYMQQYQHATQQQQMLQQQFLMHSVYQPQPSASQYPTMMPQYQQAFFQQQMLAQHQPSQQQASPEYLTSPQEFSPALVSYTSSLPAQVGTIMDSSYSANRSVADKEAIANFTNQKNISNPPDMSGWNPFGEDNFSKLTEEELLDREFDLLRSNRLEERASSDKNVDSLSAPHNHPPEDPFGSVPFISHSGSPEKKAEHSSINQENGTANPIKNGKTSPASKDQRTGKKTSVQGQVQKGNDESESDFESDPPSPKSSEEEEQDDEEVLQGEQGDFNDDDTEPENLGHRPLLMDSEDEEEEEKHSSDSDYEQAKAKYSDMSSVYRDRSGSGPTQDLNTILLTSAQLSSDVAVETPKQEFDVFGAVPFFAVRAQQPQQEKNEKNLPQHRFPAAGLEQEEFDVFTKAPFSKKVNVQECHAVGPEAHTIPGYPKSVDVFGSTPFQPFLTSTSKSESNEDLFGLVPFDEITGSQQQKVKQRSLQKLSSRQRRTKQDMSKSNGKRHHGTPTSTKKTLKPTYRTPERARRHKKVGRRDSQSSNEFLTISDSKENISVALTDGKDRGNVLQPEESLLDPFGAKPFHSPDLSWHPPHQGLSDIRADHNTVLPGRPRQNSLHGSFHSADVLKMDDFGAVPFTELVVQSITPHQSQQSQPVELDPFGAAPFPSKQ
AP2-associated protein kinase 1 (Homo sapiens), sequence (Q2M2I8 whole entry, looked up): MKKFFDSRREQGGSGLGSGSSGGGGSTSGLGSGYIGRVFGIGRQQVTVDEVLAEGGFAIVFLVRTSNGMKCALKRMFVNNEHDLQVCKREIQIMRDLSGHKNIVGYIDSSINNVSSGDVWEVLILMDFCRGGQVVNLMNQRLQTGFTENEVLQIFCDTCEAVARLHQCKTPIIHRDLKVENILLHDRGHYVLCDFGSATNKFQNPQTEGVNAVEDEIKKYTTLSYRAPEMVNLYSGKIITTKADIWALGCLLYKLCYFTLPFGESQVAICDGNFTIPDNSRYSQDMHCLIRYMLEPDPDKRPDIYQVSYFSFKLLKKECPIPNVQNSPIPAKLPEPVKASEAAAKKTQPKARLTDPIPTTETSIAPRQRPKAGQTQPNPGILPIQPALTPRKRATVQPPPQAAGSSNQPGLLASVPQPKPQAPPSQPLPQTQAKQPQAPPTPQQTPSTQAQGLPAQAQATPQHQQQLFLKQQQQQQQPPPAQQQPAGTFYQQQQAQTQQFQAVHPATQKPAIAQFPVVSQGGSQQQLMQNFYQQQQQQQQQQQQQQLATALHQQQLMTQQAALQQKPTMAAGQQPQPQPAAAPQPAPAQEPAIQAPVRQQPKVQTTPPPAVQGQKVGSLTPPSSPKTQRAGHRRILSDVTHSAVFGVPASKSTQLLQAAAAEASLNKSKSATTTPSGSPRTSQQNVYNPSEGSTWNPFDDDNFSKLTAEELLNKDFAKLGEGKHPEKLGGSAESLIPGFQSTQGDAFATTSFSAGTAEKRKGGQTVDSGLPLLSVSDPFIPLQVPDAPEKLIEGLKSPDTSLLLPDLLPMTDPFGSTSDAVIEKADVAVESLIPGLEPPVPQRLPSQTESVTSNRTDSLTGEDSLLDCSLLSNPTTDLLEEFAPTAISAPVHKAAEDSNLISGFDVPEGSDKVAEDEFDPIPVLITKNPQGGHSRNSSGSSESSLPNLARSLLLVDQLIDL
Casein kinase II subunit alpha, sequence (P68400 whole entry): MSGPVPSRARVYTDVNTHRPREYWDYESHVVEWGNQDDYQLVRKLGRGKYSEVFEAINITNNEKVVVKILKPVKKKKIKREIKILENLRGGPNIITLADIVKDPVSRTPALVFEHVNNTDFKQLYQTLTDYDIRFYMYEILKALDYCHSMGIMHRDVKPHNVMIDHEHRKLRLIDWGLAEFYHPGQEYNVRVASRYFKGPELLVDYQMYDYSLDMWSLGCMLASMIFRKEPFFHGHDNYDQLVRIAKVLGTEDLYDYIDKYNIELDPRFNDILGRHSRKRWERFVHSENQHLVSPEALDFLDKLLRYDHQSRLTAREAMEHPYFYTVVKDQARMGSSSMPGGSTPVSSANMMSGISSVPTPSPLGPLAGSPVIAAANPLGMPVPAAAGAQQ

The term IC50 denotes the concentration needed to halve the response being measured. One may read the EC50 as the concentration needed to bring the measured effect to its halfway point. A word on the ΔTm: it is the shift of the melting midpoint relative to a reference. The Kd is the concentration at which binding is half-saturated. A high value points to lower affinity. Consider `CC(C)(C)NC(=O)c1ccc2cc1OCCOCCNc1ccn3ncc-2c3n1`, for which the IC50 in series [1] stood at 0.182 µM; in [5], 8.4 µM; in series [9], 0.95 µM; in [12], 8 µM; in [14], 0.38 µM; in series [15] it was 39 µM. In addition, the deltaS in [2] is 11.1 cal/mol.K. Further, the deltaG in series [3] was -10.6 kcal/mol. Also, the values for the Activity result in [4], in series [6] and in series [7] were “Toxic”, “Non-Toxic” and “Non-Toxic”, respectively. The EC50 in [8] came out at 10.4 µM; in [10], 9.2 µM. The outcome in series [11] and in series [18] was Active. For the same compound, the values for the shift in melting temperature (ΔTm) in series [13] and in [17] were more than 5 °C and 11.3 °C, respectively. The compound also displayed a dissociation constant (Kd) in [16] of 0.021 µM. Further, in series [19], the half-maximal effective concentration (EC50) at 36 h is more than 10 µM.
